± gives the standard deviation of the averaged measurements.
How the values were obtained:
Settings in all cases: 72 h
Calu-3 [1] = test: drug sensitivity score (DSS) for viability; higher = more toxic; extreme values may be limits of the assay
HepG2 [2] = test: as above
U2OS [3] = test: as above
Caco-2 [4] = test: as above
Vero E6 [5] = test: as above
Calu-3 [6] = test: relative viability EC50 (midpoint between 100% and the lowest measured viability); higher = less toxic
HepG2 [7] = test: as above
U2OS [8] = test: as above
Caco-2 [9] = test: as above
Vero E6 [10] = test: as above
Calu-3 [11] = test: cell viability relative to DMSO; higher = less toxic
HepG2 [12] = test: as above
U2OS [13] = test: as above
Caco-2 [14] = test: as above
Vero E6 [15] = test: as above

SMILES	drug sensitivity score (Calu-3 [1])	drug sensitivity score (HepG2 [2])	drug sensitivity score (U2OS [3])	drug sensitivity score (Caco-2 [4])	drug sensitivity score (Vero E6 [5])	relative viability EC50 (Calu-3 [6])	relative viability EC50 (HepG2 [7])	relative viability EC50 (U2OS [8])	relative viability EC50 (Caco-2 [9])	relative viability EC50 (Vero E6 [10])	cell viability (Calu-3 [11]; 1 nM)	cell viability (Calu-3 [11]; 10 nM)	cell viability (Calu-3 [11]; 100 nM)	cell viability (Calu-3 [11]; 1000 nM)	cell viability (Calu-3 [11]; 10000 nM)	cell viability (HepG2 [12]; 1 nM)	cell viability (HepG2 [12]; 10 nM)	cell viability (HepG2 [12]; 100 nM)	cell viability (HepG2 [12]; 1000 nM)	cell viability (HepG2 [12]; 10000 nM)	cell viability (U2OS [13]; 1 nM)	cell viability (U2OS [13]; 10 nM)	cell viability (U2OS [13]; 100 nM)	cell viability (U2OS [13]; 1000 nM)	cell viability (U2OS [13]; 10000 nM)	cell viability (Caco-2 [14]; 1 nM)	cell viability (Caco-2 [14]; 10 nM)	cell viability (Caco-2 [14]; 100 nM)	cell viability (Caco-2 [14]; 1000 nM)	cell viability (Caco-2 [14]; 10000 nM)	cell viability (Vero E6 [15]; 1 nM)	cell viability (Vero E6 [15]; 10 nM)	cell viability (Vero E6 [15]; 100 nM)	cell viability (Vero E6 [15]; 1000 nM)	cell viability (Vero E6 [15]; 10000 nM)
Fc1ccc(Cl)cc1-c1nc(Nc2ccncc2)c2nccnc2n1 [SD-208]	0	0	0	0	0.4	> 10 µM	> 10 µM	> 10 µM	> 10 µM	> 10 µM	107%	94.9%	111%	105%	103%	107%	107%	103%	95.6%	98.2%	103%	101%	96.5%	90.1%	91.2%	108%	102%	104%	93.4%	93.2%	102%	103%	106%	96.5%	86.2%
C=C(C)CN1CC[C@]23c4c5ccc(O)c4O[C@H]2c2[nH]c4ccccc4c2C[C@@]3(O)C1C5 [SDM25N]	0.2	0.4	0	0.1	0	> 10 µM	> 10 µM	> 10 µM	> 10 µM	> 10 µM	92.8%	86.2%	93.5%	110%	82.4%	92.7%	101%	100%	102%	80.7%	93.7%	100%	100%	101%	91.8%	92.9%	102%	89.9%	101%	86.4%	90.7%	93.1%	95.6%	96.6%	88.8%
CCN(CC)CCOC(=O)c1cc(Cl)c(N)cc1OC [SDZ-205-557]	0	0	0	0	0	> 10 µM	> 10 µM	> 10 µM	> 10 µM	> 10 µM	107%	101%	88%	96.6%	90.1%	105%	97.1%	90.6%	93.3%	102%	98.9%	102%	97%	103%	98.3%	95.5%	101%	97.9%	106%	104%	106%	104%	99%	94.8%	97.3%
CO[C@@H]1[C@H](O)[C@@H](CO)O[C@H]1n1cnc2c(NC3CCCCC3)ncnc21 [SDZ-WAG-994]	0	0	0	0	0	> 10 µM	> 10 µM	> 10 µM	> 10 µM	> 10 µM	88.5%	89.5%	83.3%	88.3%	109%	88%	93.4%	104%	93%	101%	93.6%	100%	97%	103%	108%	84.7%	95.4%	90%	103%	99.5%	99.5%	94.7%	97.1%	95.2%	109%
Cc1ccc(S(=O)(=O)OCC(=O)Nc2ccc(C(=O)O)c(O)c2)cc1 [STAT3-inhibitor-VI]	0	0	0	0	0	> 10 µM	> 10 µM	> 10 µM	> 10 µM	> 10 µM	102%	95.1%	102%	96.2%	101%	102%	104%	96.2%	92.1%	95.6%	103%	96%	101%	104%	99%	101%	93.1%	90.6%	90.8%	99.9%	98.3%	97.6%	94.1%	98.9%	89.8%
N#Cc1ccc(N(Cc2ccc(Br)cc2)n2cnnc2)cc1 [YM-511]	0	0	0	0.2	0	> 10 µM	> 10 µM	> 10 µM	> 10 µM	> 10 µM	95.9%	97.8%	92.4%	97.4%	99.3%	104%	102%	99.8%	96.6%	98%	104%	96.4%	103%	98.4%	101%	108%	92%	94.1%	92%	88.3%	103%	98%	100%	106%	96.6%
CCc1cc2c(c(CC)n1)CCC(=O)N2Cc1ccc(-c2ccccc2-c2nnn[nH]2)cc1 [ZD-7155]	0	0	0	0	0	> 10 µM	> 10 µM	> 10 µM	> 10 µM	> 10 µM	111%	99.8%	97%	95.3%	94.7%	86.1%	97.8%	91.1%	99.6%	102%	96.2%	97.4%	102%	99.3%	101%	97.5%	86.9%	91.5%	96.8%	109%	92.5%	96.2%	91.6%	97.1%	102%
CCN(c1ccccc1)c1cc(=NC)n(C)c(C)n1 [ZD-7288]	0	0	0	0	0	> 10 µM	> 10 µM	> 10 µM	> 10 µM	> 10 µM	106%	101%	91.8%	103%	96.9%	98.1%	109%	99.4%	102%	93.5%	97.4%	97.6%	103%	98.7%	96%	103%	102%	113%	101%	97.3%	108%	103%	99.3%	102%	99%
CC(=O)NCCCCCC(=O)O [acexamic-acid]	0	0	0	0	0	> 10 µM	> 10 µM	> 10 µM	> 10 µM	> 10 µM	98.9%	89.2%	94.9%	114%	102%	93%	105%	99.1%	93.7%	107%	96.8%	104%	96.3%	104%	100%	108%	99.2%	98.3%	108%	103%	99.4%	99.1%	101%	99.3%	102%
CC(C)(C)NCC(O)c1ccc(O)c(CO)c1 (stereo not given) [albuterol]	0	0.55 ± 0.78	0	0	0	> 10 µM	> 10 µM	> 10 µM	> 10 µM	> 10 µM	98.2 ± 3.3%	97.2 ± 3.8%	96.2 ± 6.6%	103 ± 6%	103 ± 9.1%	108 ± 2.9%	96.1 ± 2.7%	98.5 ± 15%	100 ± 14%	91.6 ± 11%	101 ± 2.5%	98.5 ± 4%	97 ± 2.5%	97.6 ± 3.7%	96.2 ± 2.9%	101 ± 2%	101 ± 14%	90.9 ± 2.3%	96.3 ± 1.5%	102 ± 7.1%	106 ± 2.5%	94.8 ± 5.2%	99.5 ± 3%	97.8 ± 0.42%	101 ± 3.8%
Nc1ccc(C(=O)O)c(O)c1 [aminosalicylate]	0	0	0	0	0	> 10 µM	> 10 µM	> 10 µM	> 10 µM	> 10 µM	96.5%	101%	107%	98.9%	99.3%	92.6%	102%	99.7%	81.1%	102%	92.5%	101%	96.4%	104%	93.8%	95.7%	115%	105%	116%	104%	95.5%	98.5%	104%	104%	95.3%
